Non-standard residues stand in square brackets, D forms with d. Residues, ends and D or L forms follow the SMILES beside them. *: point of attachment. dPhe(4-NHCONH2) = NC(=O)Nc1ccc(C[C@@H](N)C(=O)O)cc1; Dihydroorotyl(S) = O=C1C[C@@H](C(=O)*)NC(=O)N1; dPhe(4-Cl) = N[C@H](Cc1ccc(Cl)cc1)C(=O)O; Phe(4-NH2) = Nc1ccc(C[C@H](N)C(=O)O)cc1; d2Nal = N[C@H](Cc1ccc2ccccc2c1)C(=O)O; Lys(iPr) = CC(C)NCCCC[C@H](N)C(=O)O; d3Pal = N[C@H](Cc1cccnc1)C(=O)O
Type: physicochemical
From the text: Various organic solvents were screened for the maximal solubility of DgA-DS. […] Other solvents tested include-benzyl alcohol, PEG 300, propylene carbonate, triacetin, triethyl citrate, ethyl acetate, and benzyl benzoate.
Bulk solution: To produce the drug/solvent bulk solution comprising the active pharmaceutical ingredient (DgA or DgC), the desired amount of the DgA-DS or DgC-DS was combined with the solvent NMP or DMSO or combination of solvents with or without co-solvent or other additives, in the indicated amounts (see individual experiments below). The API and solvent were combined in a glass vial or jar and blanketed with nitrogen. Jars were mixed using the jar mill, Turbula, or shaker at room temperature until homogeneous. DgA or DgC are very soluble in NMP or DMSO and can load higher concentrations (at least 40% w/w).

degarelix citrate [DgC]
concentration that can be loaded (solubility): at least 40 % w/w

CC(=O)N[C@H](Cc1ccc2ccccc2c1)C(=O)N[C@H](Cc1ccc(Cl)cc1)C(=O)N[C@H](Cc1cccnc1)C(=O)N[C@@H](CO)C(=O)N[C@@H](Cc1ccc(NC(=O)[C@@H]2CC(=O)NC(=O)N2)cc1)C(=O)N[C@H](Cc1ccc(NC(N)=O)cc1)C(=O)N[C@@H](CC(C)C)C(=O)N[C@@H](CCCCNC(C)C)C(=O)N1CCC[C@H]1C(=O)N[C@H](C)C(N)=O [DgA-DS, degarelix acetate] (Ac-[d2Nal][dPhe(4-Cl)][d3Pal]S[Phe(4-NH2)](Dihydroorotyl(S))[dPhe(4-NHCONH2)]L[Lys(iPr)]P[dA]-NH2)
concentration that can be loaded (solubility): at least 40 % w/w | solubility: either insoluble or has solubility limits much lower than NMP, DMSO or DMA | solubility capacity of degarelix: 35-40 % w/w

Reference: patent US20260232573A1, “DEGARELIX ORGANIC SOLVENT FORMULATIONS” (TOLMAR INTERNATIONAL LIMITED, priority 2023, published 2026)
